# Laboratory results published in patent publication US6465477B1, “Stable pharmaceutical composition” (Kowa Company, Ltd., priority 1997, dated 2002).
# Assay: Decomposition products of NK-104 and fluvastatin in aqueous solution of pH 3, analyzed by HPLC
# Format: physicochemical
# Settings: aqueous solution pH 3, 40° C.
# Method: Decomposition products of NK-104 were analyzed by HPLC after incubation for two days at 40° C. in aqueous solution of pH 3. […] The decomposition products of fluvastatin were also analyzed for comparison.
# The conditions under which NK-104 and Fluvastatine decomposition products were analyzed are as follows:
# HPLC system: Type LC-10 (Shimadz, Japan)
# Column: DEVELOSIL ODS-HG-5 (NOMURA CHEM., Japan)
# Mobil Phase: MeOH/0.02 mol/L phosphate buffer (pH 3)=7/3
# Sample: NK-104 or fluvastatin/pH 3/40° C., 2 days
# Detector: SPD-MLOAVP, UV 245 mm
compound,measurement,setting,value
"O=C(O)C[C@H](O)C[C@H](O)/C=C/c1c(C2CC2)nc2ccccc2c1-c1ccc(F)cc1 [NK-104, (E)-3,5-dihydroxy-7-[4′-4 ″-fluorophehyl-2 ′-cyclopropyl-quinolin-3′-yl]-6-heptenoic acid]",Quantity of decomposition products,2 days,a small quantity of one type of decomposition product
same,Decomposition products (types),two days,"a single product, a lactonized form of NK-104"
